Results as given in ChEMBL document CHEMBL5715956, “Selective Targeting of Bromodomains of the Bromodomain-PHD Fingers Family Impairs Osteoclast Differentiation” (ACS Chem Biol, 2017).

Assays:
[1] = target: Bromodomain testis-specific protein (Homo sapiens) (UniProt Q58F21); conditions: dose 10.0 µM
Homo sapiens [2] = species on record: Homo sapiens; conditions: dose 10.0 µM
[3] = target: T1, Bromodomain-containing protein 1 (Homo sapiens) (UniProt O95696); conditions: dose 10.0 µM
T1 sequence (whole entry): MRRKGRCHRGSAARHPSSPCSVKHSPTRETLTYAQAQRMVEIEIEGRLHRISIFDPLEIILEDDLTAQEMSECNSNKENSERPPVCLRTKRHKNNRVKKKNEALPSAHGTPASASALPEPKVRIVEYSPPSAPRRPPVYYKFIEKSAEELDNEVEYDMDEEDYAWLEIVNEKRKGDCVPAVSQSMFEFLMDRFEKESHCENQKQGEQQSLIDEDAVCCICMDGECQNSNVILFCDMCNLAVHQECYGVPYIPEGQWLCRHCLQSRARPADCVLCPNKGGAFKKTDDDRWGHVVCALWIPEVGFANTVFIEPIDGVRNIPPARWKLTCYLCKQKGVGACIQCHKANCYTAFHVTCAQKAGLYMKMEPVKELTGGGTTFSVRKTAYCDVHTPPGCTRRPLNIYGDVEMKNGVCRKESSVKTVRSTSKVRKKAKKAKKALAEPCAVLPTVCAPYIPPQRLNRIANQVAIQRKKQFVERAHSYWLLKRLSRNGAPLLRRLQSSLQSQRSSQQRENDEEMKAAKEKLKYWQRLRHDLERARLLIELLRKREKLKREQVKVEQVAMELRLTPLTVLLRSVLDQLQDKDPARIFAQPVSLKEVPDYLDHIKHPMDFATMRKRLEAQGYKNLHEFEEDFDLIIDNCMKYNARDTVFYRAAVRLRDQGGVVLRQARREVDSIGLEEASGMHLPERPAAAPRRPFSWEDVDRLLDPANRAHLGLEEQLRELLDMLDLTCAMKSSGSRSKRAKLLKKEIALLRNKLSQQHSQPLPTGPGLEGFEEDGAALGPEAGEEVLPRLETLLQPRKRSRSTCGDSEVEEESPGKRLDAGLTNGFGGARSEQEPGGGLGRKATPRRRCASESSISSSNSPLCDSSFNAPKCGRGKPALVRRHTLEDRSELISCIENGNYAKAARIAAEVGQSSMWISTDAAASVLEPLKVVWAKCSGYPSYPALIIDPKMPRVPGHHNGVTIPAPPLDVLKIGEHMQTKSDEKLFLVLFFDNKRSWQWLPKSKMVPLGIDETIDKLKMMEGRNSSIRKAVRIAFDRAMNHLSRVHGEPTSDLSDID

Homo sapiens [4] = species on record: Homo sapiens; conditions: dose 10.0 µM; remark: listed apart in the source
[5] = target: Bromodomain-containing protein 3 (Homo sapiens) (UniProt Q15059); conditions: dose 10.0 µM
[6] = target: Beta-2 adrenergic receptor (Homo sapiens) (UniProt P07550); test: Inhibition of Beta2 (unknown origin) at 10 uM relative to control
[7] = target: Transcription initiation factor TFIID subunit 1 (Homo sapiens) (UniProt P21675); conditions: dose 10.0 µM
[8] = target: Bromodomain and WD repeat-containing protein 3 (Homo sapiens) (UniProt Q6RI45); conditions: dose 10.0 µM
Chain of Bromodomain and WD repeat-containing protein 3 (Homo sapiens) (Q6RI45 whole entry): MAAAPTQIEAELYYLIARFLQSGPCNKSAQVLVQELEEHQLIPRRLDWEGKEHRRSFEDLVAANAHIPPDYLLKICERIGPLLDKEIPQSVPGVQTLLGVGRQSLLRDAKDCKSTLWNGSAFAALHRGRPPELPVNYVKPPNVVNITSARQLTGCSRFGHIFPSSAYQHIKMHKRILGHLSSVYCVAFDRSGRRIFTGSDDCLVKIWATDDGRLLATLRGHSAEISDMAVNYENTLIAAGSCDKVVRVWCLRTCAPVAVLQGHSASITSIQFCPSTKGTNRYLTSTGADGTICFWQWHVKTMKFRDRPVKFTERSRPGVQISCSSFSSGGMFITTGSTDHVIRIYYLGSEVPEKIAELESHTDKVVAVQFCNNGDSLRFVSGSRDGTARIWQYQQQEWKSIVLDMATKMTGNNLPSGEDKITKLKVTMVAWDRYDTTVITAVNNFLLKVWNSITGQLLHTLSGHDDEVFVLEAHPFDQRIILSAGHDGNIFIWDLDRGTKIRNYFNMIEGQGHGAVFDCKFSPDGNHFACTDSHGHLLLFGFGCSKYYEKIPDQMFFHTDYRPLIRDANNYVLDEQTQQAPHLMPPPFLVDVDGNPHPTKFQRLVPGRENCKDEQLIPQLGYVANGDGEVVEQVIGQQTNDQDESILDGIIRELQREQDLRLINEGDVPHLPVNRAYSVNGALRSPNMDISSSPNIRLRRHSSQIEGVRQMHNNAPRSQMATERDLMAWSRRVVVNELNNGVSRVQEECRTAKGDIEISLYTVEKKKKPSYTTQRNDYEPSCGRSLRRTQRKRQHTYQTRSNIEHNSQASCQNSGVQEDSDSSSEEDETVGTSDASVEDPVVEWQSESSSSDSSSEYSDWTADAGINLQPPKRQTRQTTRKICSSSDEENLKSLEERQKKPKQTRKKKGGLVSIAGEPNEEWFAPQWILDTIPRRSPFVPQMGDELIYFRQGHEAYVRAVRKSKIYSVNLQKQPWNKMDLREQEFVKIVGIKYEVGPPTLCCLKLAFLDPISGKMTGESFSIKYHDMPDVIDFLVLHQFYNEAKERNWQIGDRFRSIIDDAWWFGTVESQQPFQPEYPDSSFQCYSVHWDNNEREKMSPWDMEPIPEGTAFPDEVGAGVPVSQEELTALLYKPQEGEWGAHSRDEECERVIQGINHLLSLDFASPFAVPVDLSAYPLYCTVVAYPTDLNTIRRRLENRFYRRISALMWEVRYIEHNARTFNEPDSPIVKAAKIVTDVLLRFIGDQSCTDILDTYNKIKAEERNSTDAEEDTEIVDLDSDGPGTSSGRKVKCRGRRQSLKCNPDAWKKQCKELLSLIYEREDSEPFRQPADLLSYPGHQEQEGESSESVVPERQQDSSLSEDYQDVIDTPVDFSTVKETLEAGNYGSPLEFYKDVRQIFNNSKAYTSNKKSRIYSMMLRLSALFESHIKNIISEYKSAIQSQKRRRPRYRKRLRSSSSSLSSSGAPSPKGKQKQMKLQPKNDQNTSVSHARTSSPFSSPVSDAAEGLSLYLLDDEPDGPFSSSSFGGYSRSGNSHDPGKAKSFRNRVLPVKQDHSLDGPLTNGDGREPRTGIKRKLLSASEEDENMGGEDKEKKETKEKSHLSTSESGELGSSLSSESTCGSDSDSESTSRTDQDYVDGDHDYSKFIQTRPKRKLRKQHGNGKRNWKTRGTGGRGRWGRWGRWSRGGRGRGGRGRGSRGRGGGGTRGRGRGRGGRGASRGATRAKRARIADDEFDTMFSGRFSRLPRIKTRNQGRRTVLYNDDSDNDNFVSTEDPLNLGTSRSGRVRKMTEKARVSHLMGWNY

Chain of Bromodomain-containing protein 3 (Homo sapiens) (Q15059 2-726 limits assumed): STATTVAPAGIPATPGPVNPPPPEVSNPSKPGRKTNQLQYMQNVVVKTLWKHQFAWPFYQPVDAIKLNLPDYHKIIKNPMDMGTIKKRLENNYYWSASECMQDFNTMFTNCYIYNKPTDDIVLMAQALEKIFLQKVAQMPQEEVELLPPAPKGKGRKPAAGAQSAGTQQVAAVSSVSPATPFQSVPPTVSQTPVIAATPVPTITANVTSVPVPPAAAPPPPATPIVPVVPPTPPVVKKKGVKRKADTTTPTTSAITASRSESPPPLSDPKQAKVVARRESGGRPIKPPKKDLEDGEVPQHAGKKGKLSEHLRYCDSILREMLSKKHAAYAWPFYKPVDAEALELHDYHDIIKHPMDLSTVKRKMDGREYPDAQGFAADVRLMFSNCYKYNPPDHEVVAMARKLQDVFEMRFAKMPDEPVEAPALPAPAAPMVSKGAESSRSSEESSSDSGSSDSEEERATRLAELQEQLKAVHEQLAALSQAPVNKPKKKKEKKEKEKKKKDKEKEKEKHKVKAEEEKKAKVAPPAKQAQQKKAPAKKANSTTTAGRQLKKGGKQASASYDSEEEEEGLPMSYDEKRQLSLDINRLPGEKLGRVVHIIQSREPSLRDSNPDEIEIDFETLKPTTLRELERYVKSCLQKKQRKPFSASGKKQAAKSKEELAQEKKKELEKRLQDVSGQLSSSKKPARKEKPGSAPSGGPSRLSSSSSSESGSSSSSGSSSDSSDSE
Chain of Transcription initiation factor TFIID subunit 1 (Homo sapiens) (P21675 whole entry): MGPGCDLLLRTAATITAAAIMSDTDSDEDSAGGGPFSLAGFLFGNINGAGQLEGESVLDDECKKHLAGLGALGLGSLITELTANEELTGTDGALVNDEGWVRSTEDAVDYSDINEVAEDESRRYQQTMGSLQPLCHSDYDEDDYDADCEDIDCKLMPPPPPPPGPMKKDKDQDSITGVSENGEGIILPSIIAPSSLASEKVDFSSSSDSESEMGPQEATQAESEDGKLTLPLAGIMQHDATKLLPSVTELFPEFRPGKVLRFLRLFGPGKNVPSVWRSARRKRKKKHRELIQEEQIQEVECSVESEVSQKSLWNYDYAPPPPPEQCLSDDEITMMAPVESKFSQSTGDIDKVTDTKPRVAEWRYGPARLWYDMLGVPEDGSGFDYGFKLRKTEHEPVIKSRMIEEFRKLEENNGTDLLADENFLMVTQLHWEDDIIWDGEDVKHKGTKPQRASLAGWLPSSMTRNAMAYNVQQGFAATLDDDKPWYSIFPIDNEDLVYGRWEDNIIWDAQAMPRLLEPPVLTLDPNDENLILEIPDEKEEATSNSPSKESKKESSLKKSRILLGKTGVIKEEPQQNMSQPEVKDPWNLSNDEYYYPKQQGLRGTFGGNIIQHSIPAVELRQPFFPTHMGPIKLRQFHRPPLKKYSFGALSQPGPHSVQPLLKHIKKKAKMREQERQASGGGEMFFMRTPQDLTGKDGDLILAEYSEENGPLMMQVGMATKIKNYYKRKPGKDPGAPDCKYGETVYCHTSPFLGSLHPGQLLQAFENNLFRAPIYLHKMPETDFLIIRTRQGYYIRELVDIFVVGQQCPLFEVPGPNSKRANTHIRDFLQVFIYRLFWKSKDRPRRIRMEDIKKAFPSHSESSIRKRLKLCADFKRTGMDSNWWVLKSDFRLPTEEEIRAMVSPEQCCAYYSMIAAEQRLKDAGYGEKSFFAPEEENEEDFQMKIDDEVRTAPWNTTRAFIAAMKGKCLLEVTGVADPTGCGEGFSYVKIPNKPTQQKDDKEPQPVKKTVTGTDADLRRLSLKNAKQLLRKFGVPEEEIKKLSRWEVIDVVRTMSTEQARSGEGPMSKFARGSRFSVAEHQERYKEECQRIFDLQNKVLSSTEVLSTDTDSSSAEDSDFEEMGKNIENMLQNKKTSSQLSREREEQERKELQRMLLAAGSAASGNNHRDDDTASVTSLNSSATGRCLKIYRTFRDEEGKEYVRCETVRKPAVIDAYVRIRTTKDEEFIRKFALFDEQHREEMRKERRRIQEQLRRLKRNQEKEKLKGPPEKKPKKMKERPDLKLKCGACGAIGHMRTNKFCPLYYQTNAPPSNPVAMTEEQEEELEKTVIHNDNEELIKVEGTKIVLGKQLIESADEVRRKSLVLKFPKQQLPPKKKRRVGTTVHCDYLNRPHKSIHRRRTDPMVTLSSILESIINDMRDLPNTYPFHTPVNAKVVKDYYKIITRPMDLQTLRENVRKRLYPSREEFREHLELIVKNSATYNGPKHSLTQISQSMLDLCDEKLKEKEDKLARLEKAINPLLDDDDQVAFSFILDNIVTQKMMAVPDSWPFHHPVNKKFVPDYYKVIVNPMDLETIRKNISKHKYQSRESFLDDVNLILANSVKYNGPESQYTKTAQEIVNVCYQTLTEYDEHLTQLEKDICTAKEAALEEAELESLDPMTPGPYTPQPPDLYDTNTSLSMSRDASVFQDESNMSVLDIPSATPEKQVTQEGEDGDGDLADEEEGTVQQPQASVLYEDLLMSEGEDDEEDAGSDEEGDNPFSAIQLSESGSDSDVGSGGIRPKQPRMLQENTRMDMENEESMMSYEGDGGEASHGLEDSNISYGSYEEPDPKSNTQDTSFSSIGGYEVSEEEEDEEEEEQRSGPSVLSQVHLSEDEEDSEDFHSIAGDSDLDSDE
Chain of Beta-2 adrenergic receptor (Homo sapiens) (P07550 whole entry, looked up): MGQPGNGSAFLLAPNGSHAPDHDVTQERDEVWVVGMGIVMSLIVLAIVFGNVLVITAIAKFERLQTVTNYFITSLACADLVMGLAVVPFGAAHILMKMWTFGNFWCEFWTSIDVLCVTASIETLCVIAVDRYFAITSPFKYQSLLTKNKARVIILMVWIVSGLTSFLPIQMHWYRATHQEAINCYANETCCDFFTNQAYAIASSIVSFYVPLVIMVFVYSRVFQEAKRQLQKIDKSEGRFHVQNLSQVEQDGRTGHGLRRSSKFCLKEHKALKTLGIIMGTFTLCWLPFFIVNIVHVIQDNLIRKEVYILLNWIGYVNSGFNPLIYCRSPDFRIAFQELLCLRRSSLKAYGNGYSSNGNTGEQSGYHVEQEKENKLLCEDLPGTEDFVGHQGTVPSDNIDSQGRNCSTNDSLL

ΔTm [1]: 0.8 °C
ΔTm (Homo sapiens [2]): 0.2 °C
ΔTm [3]: 3.1 °C
ΔTm (Homo sapiens [4]): -0.4 °C
ΔTm [5]: 1.4 °C
inhibition [6]: 8%
ΔTm [7]: 0.2 °C
ΔTm [8]: 1.3 °C
Structure (SMILES): COc1cc2c(cc1NS(=O)(=O)c1ccc(Br)cc1C)n(C)c(=O)n2C
